Measured values taken from publication PMC9612005 (Pharmaceutics, 2022).
“And” between values parts separate entries of the source, which are not always exact repeats. Equal entries are not always repeated. Where two headings read alike, the source gives them in different places.

How the values were obtained:
[1] = target: T1, rod CNG channels (CNGA1:CNGB1a) (Bos taurus, UniProt Q00194+Q28181); experiment: Patch-clamp on inside-out patches, heterotetrameric rod CNG channels expressed in Xenopus laevis oocytes; format: cell-based, bovine
T1 construct: expressed in transfected cells; host or cells: Xenopus laevis oocytes (cRNA injection, pGEMHE vector); inside-out patches
T1 sequence (Q00194 whole entry): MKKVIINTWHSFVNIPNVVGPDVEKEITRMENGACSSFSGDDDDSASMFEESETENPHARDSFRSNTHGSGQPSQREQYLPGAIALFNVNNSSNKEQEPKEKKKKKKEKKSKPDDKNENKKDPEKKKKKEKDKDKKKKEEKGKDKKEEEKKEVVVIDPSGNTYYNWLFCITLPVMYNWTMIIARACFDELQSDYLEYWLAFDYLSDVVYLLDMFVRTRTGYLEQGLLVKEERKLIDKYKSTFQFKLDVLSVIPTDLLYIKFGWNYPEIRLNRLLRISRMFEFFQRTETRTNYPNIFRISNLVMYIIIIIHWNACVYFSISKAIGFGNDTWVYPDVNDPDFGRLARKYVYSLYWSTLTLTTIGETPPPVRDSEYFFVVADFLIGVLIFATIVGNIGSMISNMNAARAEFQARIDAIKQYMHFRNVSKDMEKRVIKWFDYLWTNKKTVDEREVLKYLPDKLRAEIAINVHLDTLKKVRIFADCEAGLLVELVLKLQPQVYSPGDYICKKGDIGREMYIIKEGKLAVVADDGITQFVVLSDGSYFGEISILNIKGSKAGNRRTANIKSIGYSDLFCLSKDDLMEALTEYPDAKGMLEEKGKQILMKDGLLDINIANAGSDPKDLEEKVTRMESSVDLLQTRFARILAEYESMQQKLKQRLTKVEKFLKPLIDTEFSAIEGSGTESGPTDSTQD
T1 sequence (Q28181 whole entry): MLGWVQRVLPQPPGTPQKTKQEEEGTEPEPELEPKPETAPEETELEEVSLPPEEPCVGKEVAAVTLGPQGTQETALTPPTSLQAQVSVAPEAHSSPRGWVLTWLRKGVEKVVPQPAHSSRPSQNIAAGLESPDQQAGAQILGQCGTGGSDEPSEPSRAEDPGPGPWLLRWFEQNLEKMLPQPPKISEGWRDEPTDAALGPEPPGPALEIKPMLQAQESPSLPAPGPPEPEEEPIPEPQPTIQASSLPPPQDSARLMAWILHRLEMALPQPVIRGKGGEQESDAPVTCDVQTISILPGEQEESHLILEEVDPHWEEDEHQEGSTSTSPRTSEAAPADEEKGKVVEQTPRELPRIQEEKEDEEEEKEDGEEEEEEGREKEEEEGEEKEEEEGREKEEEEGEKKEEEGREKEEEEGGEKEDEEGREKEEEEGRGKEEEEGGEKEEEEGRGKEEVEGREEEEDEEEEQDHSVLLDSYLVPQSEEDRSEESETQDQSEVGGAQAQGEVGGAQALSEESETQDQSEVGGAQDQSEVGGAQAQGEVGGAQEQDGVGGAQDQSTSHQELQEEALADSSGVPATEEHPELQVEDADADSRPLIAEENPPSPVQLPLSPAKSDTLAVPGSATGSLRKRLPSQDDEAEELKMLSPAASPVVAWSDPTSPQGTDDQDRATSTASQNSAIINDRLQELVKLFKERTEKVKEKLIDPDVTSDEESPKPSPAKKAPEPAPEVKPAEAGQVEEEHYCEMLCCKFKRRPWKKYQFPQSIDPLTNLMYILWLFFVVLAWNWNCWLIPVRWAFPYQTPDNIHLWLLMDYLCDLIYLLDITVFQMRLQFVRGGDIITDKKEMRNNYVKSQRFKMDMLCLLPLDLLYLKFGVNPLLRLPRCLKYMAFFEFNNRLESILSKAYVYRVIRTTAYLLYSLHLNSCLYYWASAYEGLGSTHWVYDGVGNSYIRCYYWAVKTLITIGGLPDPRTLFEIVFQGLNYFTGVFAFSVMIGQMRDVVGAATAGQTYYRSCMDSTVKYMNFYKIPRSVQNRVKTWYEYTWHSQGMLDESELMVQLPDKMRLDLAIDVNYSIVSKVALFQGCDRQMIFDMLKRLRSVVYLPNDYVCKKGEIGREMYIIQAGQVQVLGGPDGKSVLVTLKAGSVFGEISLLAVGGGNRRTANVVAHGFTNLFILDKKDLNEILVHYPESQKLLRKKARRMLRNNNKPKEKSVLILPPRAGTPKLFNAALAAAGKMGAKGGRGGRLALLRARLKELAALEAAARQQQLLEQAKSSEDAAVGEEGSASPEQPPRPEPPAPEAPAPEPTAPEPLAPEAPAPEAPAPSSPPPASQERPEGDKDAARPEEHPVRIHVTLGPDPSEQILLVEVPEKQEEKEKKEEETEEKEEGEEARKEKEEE
Text: The patch pipettes were pulled from borosilicate glass tubing (outer diameter 2.0 mm, inner diameter 1.0 mm; Hilgenberg GmbH, Malsfeld, Germany). The initial resistance of the solution-filled pipettes was 0.6–1.4 MΩ. […] For studying the activation and deactivation kinetics of CNG channels, we performed fast jumps between different ligand concentrations by means of a double-barreled θ-glass pipette mounted on a piezo-driven device, which was controlled by the computer. For measuring the time courses, the recording rate was 20 kHz. […]

cone photoreceptors = experiment: µERG a-wave of mouse retinal explants on MEA, photopic (light-adapted) stimulation; format: cell-based; settings: for decrease in the a-wave slope vs control / a-wave amplitude / a-wave slope: photopic; for decrease in the a-wave slope vs control: averaged; for decrease in the a-wave slope vs control / cone a-wave responses under photopic stimulation: inhibitor 50 µM, activator 0.1 µM; for a-wave amplitude / a-wave slope: inh 50 µM, act 0.1 µM, mean ±std; for cone a-wave responses under photopic stimulation: ≥+0.5 log
Description: (§1) Further animal experiments were performed using adult postnatal-day (P) 25–30 C57BL/6J mice (n = 12). Animals were housed under standard 12 h white cyclic lighting, had free access to food, water, and playgrounds, and were used irrespective of gender. Animal protocols compliant with §4 of the German law on animal protection were reviewed and approved by the Tübingen University committee on animal protection, and registered on 30 March 2022 under the No. AK05/22M. Moreover, experiments were performed in accordance with the ARVO statement for the use of animals in ophthalmic and visual research. All efforts were made to minimize the number of mice used and their suffering.
(§2) The mice were kept overnight in a ventilated light-tight box for dark-adaption. Subsequent procedures were performed under dim red light. The eyes of the mice were enucleated; then, the retina was isolated in extracellular solution containing (in mM): 125 NaCl, 26 NaHCO3, 2.5 KCl, 2 CaCl2, 1 MgCl2, 1.25 NaH2PO4, and 20 glucose, and was maintained at pH 7.4 using carboxygen perfusion (95/5% O2/CO2). All chemicals were obtained from Merck KGaA (Darmstadt, Germany). For MEA recording, the retinas were placed in the MEA-recording chamber (GC-side down). During the recordings, the tissue was perfused with carboxygenated medium at 32 °C. The chamber perfusion rate was adjusted to 2 mL/min.
(§3) Electrophysiological recordings were performed to assess the light dependent retinal responses (photoreceptors µERG and RGCs spikes) by means of a multi-electrode array system (MEA, USB-MEA60-Up-BC-System-E from Multi Channel Systems, Reutlingen, Germany) equipped with MEA 200/30iR-ITO-pr. The recordings were performed at a 25,000 Hz sampling-rate collecting unfiltered raw data. The trigger-synchronized operation of the light stimulation (LEDD1B T-Cube, Thorlabs) and MEA recording were controlled by the recording protocol set within the MCRack software (v 4.6.2, Multi Channel Systems, Reutlingen, Germany) and the digital I/O box (MCS). The light stimulation (white light LED, 2350 mW, MCWHD3, Thorlabs, Newton, NJ, USA) was applied from beneath the transparent glass MEA, guided by optic fiber and optics. A spectrometer USB4000-UV-VIS-ES (Ocean Optics, Orlando, FL, USA) was employed to calibrate the intensity of the applied light-stimulation protocol. To discriminate the rod and cone photoreceptor responses, a light-stimulation protocol for ex vivo MEA recordings was established following the standard in-vivo ERG protocol. For scotopic recordings (rod responses), the animals were dark-adapted (12 h), while for the photopic recordings (cone responses), the retinal explants were light-adapted on the MEA (5 min at intensity of 4.20 × 10^13 photons/cm^2/s), subsequent to scotopic stimulation. The parameters of the light stimuli were set as: light flash 250 ms long (3 repetition per light intensity, 20 s interval). Scotopic: 10 stimuli in 0.5 log steps from −4.5 to 0.0 (1.33 × 10^9–4.20 × 10^13 photons/cm^2/s). Photopic (background light: 4.20 × 10^13 photons/cm^2/s): four stimuli in 0.5 log steps from +0.5 to +2.0 (1.33 × 10^14–4.20 × 10^15 photons/cm^2/s).
MEA-recorded raw data files were filtered employing a Butterworth 2nd order filter (MC-Rack, Multi-channel systems) to extract the µERG (field potentials: bandpass 0.01–100 Hz) and spikes (high pass 200 Hz). The filtered data were converted to *.hdf files by MC DataManager (v1.6.1.0, Multi Channel Systems, Reutlingen, Germany) for further data processing in MATLAB [39]. Shown traces data are the average of 30 MEA recording electrodes, per condition. n = 5 retinae were recorded per condition. Statistical significance was estimated by one-way ANOVA followed by the Dunnett´s test for multiple comparisons. […]

retinal ganglion cells = experiment: Light-evoked retinal ganglion cell spike responses of mouse retinal explants on MEA; format: cell-based; settings: for Spike count (10 ms bin): inh 50 µM, act 0.1 µM, mean ±std; for drop of RGC spiking activity: ≥−2.0 log
Description: as §1, §2, §3
MEA-recorded raw data files were filtered employing a Butterworth 2nd order filter (MC-Rack, Multi-channel systems) to extract the µERG (field potentials: bandpass 0.01–100 Hz) and spikes (high pass 200 Hz). The filtered data were converted to *.hdf files by MC DataManager (v1.6.1.0, Multi Channel Systems, Reutlingen, Germany) for further data processing in MATLAB [39]. Shown traces data are the average of 30 MEA recording electrodes, per condition. n = 5 retinae were recorded per condition. Statistical significance was estimated by one-way ANOVA followed by the Dunnett´s test for multiple comparisons. Experimental data are given as mean ± SEM.

[2] = photopic, light intensity +0.5 log
[3] = photopic, light intensity +1.0 log
[4] = photopic, light intensity +1.5 log
[5] = photopic, light intensity +2.0 log
[6] = scotopic, light intensity 0.0 log
[7] = scotopic, light intensity -0.5 log
[8] = scotopic, light intensity -1.0 log
[9] = scotopic, light intensity -1.5 log
[10] = scotopic, light intensity -2.0 log
[11] = scotopic, light intensity -2.5 log
[12] = scotopic, light intensity -3.0 log
[13] = scotopic, light intensity -3.5 log
[14] = scotopic, light intensity -4.0 log
[15] = scotopic, light intensity -4.5 log
[16] = scotopic, inhibitor 50 µM, activator 0.1 µM

Nc1nc2c(nc(Sc3ccc(Cl)cc3)n2[C@@H]2O[C@@H]3COP(=O)(O)O[C@H]3[C@H]2O)c(=O)[nH]1 [8-pCPT-cGMP] was tested, and the “effect on rod channels” value ([1]; 0.1 µM) was “almost no effect on rod channels”, the “potency compared to cGMP, rod channel” value ([1]; higher potency than cGMP) was ~ 63 times and the “H (Hill coefficient), rod CNG channels” value ([1]; ligand alone) was 2.2. For the same compound, the EC50 ([1]; ligand alone, concentration-activation relationship, Hill fit, read-out: EC50, rod CNG channels) was 630 nM, the “decrease in the a-wave slope vs control” value (cone photoreceptors) was ~ 60% and the a-wave amplitude (cone photoreceptors; light intensity +0.5 log) was -3.04± 1.68 µV. For the same compound, the a-wave slope (cone photoreceptors; light intensity +0.5 log) was -0.04± 0.06 µV / 20 ms, the a-wave amplitude (cone photoreceptors; light intensity +1.0 log) was -7.72± 1.37 µV and the a-wave slope (cone photoreceptors; light intensity +1.0 log) was 0.07± 0.22 µV / 20 ms. The a-wave amplitude (cone photoreceptors; light intensity +1.5 log) was -10.79± 1.41 µV, the a-wave slope (cone photoreceptors; light intensity +1.5 log) was -0.18± 0.09 µV / 20 ms and the a-wave amplitude (cone photoreceptors; light intensity +2.0 log) was -12.55± 1.72 µV. The a-wave slope (cone photoreceptors; light intensity +2.0 log) was -0.23± 0.11 µV / 20 ms, the “cone a-wave responses under photopic stimulation” value (cone photoreceptors) was “no effect on cones” and the “Spike count (10 ms bin)” value (retinal ganglion cells; [2]) was 4.35± 0.79. The “Spike count (10 ms bin)” value (retinal ganglion cells; [3]) was 4.43± 0.47, the “Spike count (10 ms bin)” value (retinal ganglion cells; [4]) was 4.74± 1.09 and the “Spike count (10 ms bin)” value (retinal ganglion cells; [5]) was 4.56± 0.92. The “Spike count (10 ms bin)” value (retinal ganglion cells; [6]) was 3.92± 0.24, the “Spike count (10 ms bin)” value (retinal ganglion cells; [7]) was 3.60± 0.35 and the “Spike count (10 ms bin)” value (retinal ganglion cells; [8]) was 3.03± 0.52. The “Spike count (10 ms bin)” value (retinal ganglion cells; [9]) was 3.04± 0.49, the “Spike count (10 ms bin)” value (retinal ganglion cells; [10]) was 2.41± 0.38 and the “Spike count (10 ms bin)” value (retinal ganglion cells; [11]) was 1.28± 0.51. The “Spike count (10 ms bin)” value (retinal ganglion cells; [12]) was 0.73± 0.49, the “Spike count (10 ms bin)” value (retinal ganglion cells; [13]) was 0.86± 0.30 and the “Spike count (10 ms bin)” value (retinal ganglion cells; [14]) was 0.89± 0.07. For the same compound, the “Spike count (10 ms bin)” value (retinal ganglion cells; [15]) was 0.67± 0.22 and the “drop of RGC spiking activity” value (retinal ganglion cells; [16]) was 35–47%.
In the case of O=c1c2nc(Br)n([C@@H]3O[C@@H]4CO[P@@](=O)(S)O[C@H]4[C@H]3O)c2nc2[nH]c(-c3ccccc3)cn12 [Rp-8-Br-PET-cGMPS], the EC50 [1] is reported as 450 nM, the “decrease in the apparent affinity of rod CNG channels (increase of cGMP EC50)” value ([1]; 50 µM analogue) is reported as ~ 4.9 fold and ~ 5 fold and the “H (Hill coefficient), rod CNG channels” value ([1]; cGMP + 50 µM of the cGMP analogue) is reported as 1.90. The “decrease in the a-wave slope vs control” value (cone photoreceptors) was roughly 90%, the a-wave amplitude (cone photoreceptors; light intensity +0.5 log) was -1.53± 0.76 µV and the a-wave slope (cone photoreceptors; light intensity +0.5 log) was 0.03± 0.02 µV / 20 ms. It also gave an a-wave amplitude (cone photoreceptors; light intensity +1.0 log) of -1.98± 0.87 µV, an a-wave slope (cone photoreceptors; light intensity +1.0 log) of -0.04± 0.02 µV / 20 ms and an a-wave amplitude (cone photoreceptors; light intensity +1.5 log) of -1.96± 0.89 µV. For the same compound, the a-wave slope (cone photoreceptors; light intensity +1.5 log) was -0.05± 0.05 µV / 20 ms, the a-wave amplitude (cone photoreceptors; light intensity +2.0 log) was -2.27± 0.97 µV and the a-wave slope (cone photoreceptors; light intensity +2.0 log) was -0.01± 0.01 µV / 20 ms. For the same compound, the “cone a-wave responses under photopic stimulation” value (cone photoreceptors) was “the cone a-wave amplitudes showed only minimal increases”, the “Spike count (10 ms bin)” value (retinal ganglion cells; [2]) was 4.85± 0.92 and the “Spike count (10 ms bin)” value (retinal ganglion cells; [3]) was 4.40± 0.94. For the same compound, the “Spike count (10 ms bin)” value (retinal ganglion cells; [4]) was 4.51± 1.07, the “Spike count (10 ms bin)” value (retinal ganglion cells; [5]) was 4.92± 1.12 and the “Spike count (10 ms bin)” value (retinal ganglion cells; [6]) was 3.80± 0.26. The “Spike count (10 ms bin)” value (retinal ganglion cells; [7]) was 3.48± 0.49, the “Spike count (10 ms bin)” value (retinal ganglion cells; [8]) was 2.91± 0.16 and the “Spike count (10 ms bin)” value (retinal ganglion cells; [9]) was 2.80± 0.63. The “Spike count (10 ms bin)” value (retinal ganglion cells; [10]) was 2.55± 0.62, the “Spike count (10 ms bin)” value (retinal ganglion cells; [11]) was 0.83± 0.28 and the “Spike count (10 ms bin)” value (retinal ganglion cells; [12]) was 0.72± 0.10. For the same compound, the “Spike count (10 ms bin)” value (retinal ganglion cells; [13]) was 1.14± 0.50, the “Spike count (10 ms bin)” value (retinal ganglion cells; [14]) was 0.98± 0.44 and the “Spike count (10 ms bin)” value (retinal ganglion cells; [15]) was 1.03± 0.27. The “drop of RGC spiking activity” value (retinal ganglion cells; [16]) was 30–40% and the “RGC spiking activity under photopic stimulation” value (retinal ganglion cells; ≥+0.5 log, inhibitor 50 µM, activator 0.1 µM) was “remained nearly at control levels”.
